Converted amounts (≈) assume the structure as drawn.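 Protocol summary: plate cells (96-well), add compound at 5 concentrations, incubate 48 h, interpolate endpoints linearly. Abbreviation: GI50, concentration required for 50% inhibition of growth. TGI: total growth inhibition.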 Bounds are passed on as bounds.

Experimental findings from PubChem BioAssay (NCI) are described below.

Test systems include HOP-18 NSCLC; HOP-62 NSCLC; SNB-78 CNS; DMS 114 small cell lung; COLO 205 colon; OVCAR-4 ovarian; MOLT-4 leukemia; RXF 393 renal; SW-620 colon; IGROV1 ovarian; UACC-257 melanoma; DLD-1 colon; SK-OV-3 ovarian; EKVX NSCLC; SN12C renal; SF-539 CNS; U251 CNS; CCRF-CEM leukemia.
What all share (assay): inhibition of tumour cell growth, NCI panel, 48 h

As for `CC(C)c1oc(=O)cc2c1C(O)C1OC(=O)C3(C)C(O)C4OC4C2(C)C13` (configuration not stated), the TGI with HOP-18 NSCLC was 24.3 µM; with HOP-62 NSCLC, 9.27 µM; in the assay with SNB-78 CNS, 52 µM; in the assay with DMS 114 small cell lung it was 6.31 µM; with COLO 205 colon it was 4.18 µM; with OVCAR-4 ovarian it was 12.4 µM. For the same compound, the TGI is 2.13 µM in the assay on MOLT-4 leukemia; 6.8 µM in the assay on RXF 393 renal; 19 µM in the assay on SW-620 colon; 20.6 µM with IGROV1 ovarian; 10.8 µM in the assay on UACC-257 melanoma; 8.57 µM in the assay on DLD-1 colon. Also, the TGI with SK-OV-3 ovarian turned out to be 20.3 µM; in the assay with EKVX NSCLC it was 9.84 µM; in the assay with SN12C renal, 7.05 µM; in the assay on SF-539 CNS, 4.19 µM; with U251 CNS, 25 µM; in the assay on CCRF-CEM leukemia, 3.07 µM.
As for `Cc1nc2nc(C)n(CCN3CCOCC3)c(=O)c2c(-c2cccc([N+](=O)[O-])c2)c1C(=O)CCCCCCCCCCN1CCC(c2ccccc2)(c2ccccc2)CC1`, in the assay on HOP-62 NSCLC, the GI50 is 2.07 µg/mL (≈ 2.55 µM) and the TGI was found to be 4.06 µg/mL.
With `O=C=C=P(c1ccccc1)(c1ccccc1)c1ccccc1`, the TGI with HOP-18 NSCLC is > 100 µM; in the assay with SNB-78 CNS, > 100 µM; in the assay on DMS 114 small cell lung it was > 100 µM; in the assay with COLO 205 colon, 75.7 µM; in the assay on OVCAR-4 ovarian, > 100 µM; in the assay with MOLT-4 leukemia, > 100 µM. Besides, the TGI in the assay with RXF 393 renal, in the assay with SW-620 colon, in the assay with IGROV1 ovarian, in the assay on UACC-257 melanoma, with DLD-1 colon and in the assay with SK-OV-3 ovarian was > 100 µM in each case. For the same compound, the TGI with EKVX NSCLC, in the assay on SN12C renal, with SF-539 CNS, in the assay with U251 CNS and in the assay with CCRF-CEM leukemia was > 100 µM each time.
